Test results published in US20250041294A1, “Synergistic compositions for use in the treatment of cancer” (Sartar Therapeutics Oy, priority 2021, published 2025).

How the values were obtained:
Type in all cases: cell-based
[1] = test system: GOT3 cell line; test: Drug combination testing with concentration matrices, SynergyFinder 2.0; conditions: combination with anagrelide, seven-concentration matrices
Procedure: (§1) Drug combination testing with anagrelide and 12 selected drugs was performed as described above but with selected drugs using drug concentration matrices covering seven different concentrations with 3 replicate sample of each combinations and in two replicate assays. […] The tool implements synergy scoring with four major reference models: HSA, Loewe, Bliss and ZIP models. The degree of a drug combination effect can be readily visualized as a synergy landscape map over the dose matrix and ZIP synergy score.

[2] = test system: SA4 cell line; test: as above; conditions: combination with anagrelide, seven-concentration matrices
Procedure: as §1

[3] = test system: GIST882 cell line; test: as above; conditions: combination with anagrelide, seven-concentration matrices
Procedure: as §1

[4] = test system: GOT3 and SA4 cell lines; test: High throughput drug sensitivity and resistance test, average over cell lines (anagrelide combination); conditions: anagrelide combination, average of SA4 and GOT3; aDSS higher than 3.0 = synergy
How it was run: (§2)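 Compounds were plated in 10-fold dilutions spanning a 10,000-fold range, alone or with anagrelide (100 nM; SA4, GOT3) or BAY2666605 (40 nM; GIST882, SA4, GOT3). Viability was read by CellTiter-Glo after 72 h and normalized to DMSO and benzethonium chloride controls. Responses were expressed as DSS from four-parameter fits, and the single-agent DSS was subtracted from the combination DSS.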

[5] = test system: GIST882, GOT3 and SA4 cell lines; test: High throughput drug sensitivity and resistance test, average over cell lines (BAY2666605 combination); conditions: for Average DSS (aDSS): BAY2666605 combination, average of GIST882, SA4 and GOT3, aDSS higher than 3.0 = synergy; for synergy in high-throughput screening (in words): with anagrelide (GOT3, SA4) or BAY2666605 (GIST882, GOT3, SA4)
How it was run: as §2

[6] = test system: GIST882 cell line; test: High throughput drug sensitivity and resistance test (CellTiter-Glo, 72 hours); conditions: drug combined with BAY2666605 (40 nM) minus drug alone
How it was run: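 GIST882 viability read by CellTiter-Glo after 72 h, normalized to 0.01% DMSO and 100 μmol/L benzethonium chloride. Compounds also combined with 40 nM BAY2666605. Four-parameter logistic curves; response as drug sensitivity score, with synergy as combination DSS minus single-agent DSS.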

[7] = test system: GIST882, SA4, and GOT3 cell lines; test: Drug combination testing with concentration matrices, SynergyFinder 2.0 (all three cell lines); conditions: drug concentration matrices and SynergyFinder 2.0, with or without Anagrelide
Procedure: Drug combination testing with anagrelide and 12 selected drugs was performed as described above but with selected drugs using drug concentration matrices covering seven different concentrations with 3 replicate sample of each combinations and in two replicate assays. Synergy was assessed using an R package SynergyFinder 2.0 (Ianevski A, et al. 2020). The tool implements synergy scoring with four major reference models: HSA, Loewe, Bliss and ZIP models. The degree of a drug combination effect can be readily visualized as a synergy landscape map over the dose matrix and ZIP synergy score.

[8] = test system: GOT3 cell line; test: High throughput drug sensitivity and resistance test (CellTiter-Glo, 72 hours); conditions: GOT3; for GOT3 cell line: DSS(combo (BAY2666605))-DSS(drug): drug combined with BAY2666605 (40 nM) minus drug alone; for GOT3 cell line: DSS(combo (anagrelide))-DSS(drug): drug combined with anagrelide hydrochloride (100 nM) minus drug alone
How it was run: as §2

[9] = test system: SA4 cell line; test: as above; conditions: SA4; for SA4 cell line: DSS(combo (BAY2666605))-DSS(drug): drug combined with BAY2666605 (40 nM) minus drug alone; for SA4 cell line: DSS(combo (anagrelide))-DSS(drug): drug combined with anagrelide hydrochloride (100 nM) minus drug alone
How it was run: as §2

[10] = test system: GIST882, SA4 and GOT3 cell lines; test: Cell viability assay (96 well, CellTiter-Glo, 72 hours); conditions: for synergy with DNMDP (in words): FIGS. 7-8
Procedure: Cell viability assay. Cells were plated on 96 Well White/Clear Tissue Culture Treated Plate (FALCON, 353377) 24 hours prior to medium change with drugs. Viabilities of cells in different treatments were evaluated 72 hours after treatment incubation with CellTiter-Glo® Luminescent Cell Viability Assay (G7572, Promega) following manufacturer's instruction. Reagent and cells stabilized to room temperature. Reagent added 100 μl/well, shaken for 2 minutes at room temperature and incubated for 10 min at room temperature before measuring the luminescence by using Hidex Sence microplate reader (Hidex oy). Growth medium was used to exclude background signal from the results.

[11] = treated together with 3-hydroxy-anagrelide, FIGS. 5 and 6
[12] = treated together with Anagrelide, FIGS. 3 and 4

Structure (SMILES) | Average ZIP synergy score [1] | Average ZIP synergy score [2] | Average ZIP synergy score [3] | Average DSS (aDSS) [4] | Average DSS (aDSS) [5] | synergy in high-throughput screening (in words) [5] | GIST882 cell line: DSS(combo (BAY2666605))-DSS(drug) [6] | efficacy in cell lines (in words) [7] | GOT3 cell line: DSS(combo (BAY2666605))-DSS(drug) [8] | GOT3 cell line: DSS(combo (anagrelide))-DSS(drug) [8] | SA4 cell line: DSS(combo (BAY2666605))-DSS(drug) [9] | SA4 cell line: DSS(combo (anagrelide))-DSS(drug) [9] | synergy with DNMDP (in words) [10] | cell viability, combination result (in words) [10, 11] | cell viability, combination result (in words) [10, 12]
Cc1c(-c2ccc(N3CCc4cccc(C(=O)Nc5nc6ccccc6s5)c4C3)nc2C(=O)O)cnn1CC12CC3CC(CC(C3)C1)C2 [A-1331852] | 11.6 | 11.1 | 9.6 | 9.25 | 10.2 | synergistic | 15.1 | significant efficacy in cell lines only when they were administered with Anagrelide | 2.8 | 3.6 | 12.6 | 14.9 |  |  | 
CC1(C)CCC(c2ccc(Cl)cc2)=C(CN2CCN(c3ccc(C(=O)NS(=O)(=O)c4ccc(N[C@H](CCN5CCOCC5)CSc5ccccc5)c(S(=O)(=O)C(F)(F)F)c4)cc3)CC2)C1 [Navitoclax, navitoclax] | 2.4 | 8 | 11.7 | 10 | 17.0 | synergistic | 20.7 | significant efficacy in cell lines only when they were administered with Anagrelide | 1.7 | 2.6 | 28.5 | 17.4 | showed synergy with DNMDP | verified the result | verified the result
CN(C)CC#Cc1ccc(OCCCc2sc(N3CCc4cccc(C(=O)Nc5nc6ccccc6s5)c4C3)nc2C(=O)O)c(F)c1 [A-1155463] | 12.7 | 11.1 | 15.5 | 14.85 | 8.8 | synergistic | 23 | significant efficacy in cell lines only when they were administered with Anagrelide | 6.9 | 7.5 | −3.6 | 22.2 | showed synergy with DNMDP | verified the result | verified the result
